The subject of test [1] is U2OS cells. The experiment in a line: Western blotting of p21, MDM2 and p53 expression. Format: cell-based. Conditions: 30 μM, 16 h.
Another test relates to HCT-116 p53+/+ cells. The experiment in a line: MTT assay. Format: cell-based. Conditions: 200 μM, 48 h; for selectivity toward wild-type p53 cells versus p53-deletion cells: HCT-116 p53+/+ vs p53–/–; for suppression of proliferation of wild-type p53 cells: HCT-116 p53+/+. Background: Formazan colour is commonly taken as a measure of viable cells.
Another test concerns the target MDM2 (Homo sapiens, UniProt Q00987). The experiment in a line: Fluorescence polarization binding affinity. The conditions noted are these: methyl to 4-chloro phenyl mutation. (In general: Polarisation of emitted light reports the rotation of a fluorescent probe.)
The test system of test [2] is U2OS cells. The experiment in a line: p53-responsive luciferase reporter assay. The test is classed as cell-based. The conditions noted are these: U2OS BP100-luc/CMV-lacZ, 30 μM, 18 h. (In general: A reporter such as luciferase makes a cellular process visible.)
A short description of test [3]: Cellular functional assay. Format: cell-based. Conditions: data not shown.

SMILES strings stand for the structures.

Chain of MDM2 (Q00987 1-150): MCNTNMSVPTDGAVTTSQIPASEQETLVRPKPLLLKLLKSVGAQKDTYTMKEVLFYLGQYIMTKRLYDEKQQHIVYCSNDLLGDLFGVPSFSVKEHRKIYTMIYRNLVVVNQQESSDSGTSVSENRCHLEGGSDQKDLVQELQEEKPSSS

As to `CC(=O)N[C@@H](CC(C)C)CN(CC(=O)N[C@@H](Cc1ccccc1)CN(CC(=O)N[C@@H](CCC(=O)O)CN1CC(=O)N[C@@H](Cc2c[nH]c3ccccc23)CN(S(C)(=O)=O)CC(=O)N[C@@H](CCCCN)CN(CC(=O)N[C@@H](CC(C)C)CN(CC(=O)N[C@@H](C)CN(CC(N)=O)S(C)(=O)=O)S(=O)(=O)CC(C)C)S(=O)(=O)CCCC/C=C\CCCCS1(=O)=O)S(C)(=O)=O)S(=O)(=O)c1ccc(Cl)cc1` [PS11], in the test with U2OS cells [1], the MDM2 level entry is “increased moderately”. For the same compound, the p21 level result in the test on U2OS cells [1] (compared to control (PBS buffer)) is given as “increased significantly”. For the same compound, in the test with HCT-116 p53+/+ cells, the “selectivity toward wild-type p53 cells versus p53-deletion cells” value is on record as “more selective toward wild-type p53 cells than p53-deletion cells” and the “suppression of proliferation of wild-type p53 cells” value is reported as “suppress proliferation of wild-type p53 cells more efficiently than the p53 peptides”.

Consider `CC(=O)N[C@@H](CC(C)C)CN(CC(=O)N[C@@H](Cc1ccccc1)CN(CC(=O)N[C@@H](CCC(=O)O)CN(CC(=O)N[C@@H](Cc1c[nH]c2ccccc12)CN(CC(=O)N[C@@H](CCCCN)CN(CC(=O)N[C@@H](CC(C)C)CN(CC(=O)N[C@@H](C)CN(CC(N)=O)S(C)(=O)=O)S(=O)(=O)CC(C)C)S(C)(=O)=O)S(C)(=O)=O)S(C)(=O)=O)S(C)(=O)=O)S(=O)(=O)c1ccc(Cl)cc1` [PS4], for which, at MDM2, the “improvement of Kd” value was “∼fourfold improvement”. In addition, the “luciferase activity compared with p53 peptide” value with U2OS cells [2] is reported as “marginally increased luciferase activity”. Also, in test [3], the “activity in the cellular functional assay” value is on record as “none of them is active”.

Take `CC(=O)N[C@@H](CC(C)C)CN(CC(=O)N[C@@H](Cc1ccccc1)CN(CC(=O)N[C@@H](CCC(=O)O)CN1CC(=O)N[C@@H](Cc2c[nH]c3ccccc23)CN(S(C)(=O)=O)CC(=O)N[C@@H](CCCCN)CN(CC(=O)N[C@@H](CC(C)C)CN(CC(=O)N[C@@H](C)CN(CC(N)=O)S(C)(=O)=O)S(=O)(=O)CC(C)C)S(=O)(=O)CC/C=C/CCCCS1(=O)=O)S(C)(=O)=O)S(=O)(=O)c1ccc(Cl)cc1` [PS12]: the MDM2 level entry with U2OS cells [1] is on record as “increased moderately”.

Take `CC(=O)N[C@@H](CC(C)C)CN(CC(=O)N[C@@H](Cc1ccccc1)CN(CC(=O)N[C@@H](CCC(=O)O)CN(CC(=O)N[C@@H](Cc1c[nH]c2ccccc12)CN(CC(=O)N[C@@H](CCCCN)CN(CC(=O)N[C@@H](CC1CCC1)CN(CC(=O)N[C@@H](C)CN(CC(N)=O)S(C)(=O)=O)S(=O)(=O)CC(C)C)S(C)(=O)=O)S(C)(=O)=O)S(C)(=O)=O)S(C)(=O)=O)S(=O)(=O)c1ccc(Cl)cc1` [PS10]: the “luciferase activity compared with p53 peptide” value in the test on U2OS cells [2] is given as “marginally increased luciferase activity”. In the test with HCT-116 p53+/+ cells, the “selectivity toward wild-type p53 cells versus p53-deletion cells” value is listed as “more selective toward wild-type p53 cells than p53-deletion cells” and the “suppression of proliferation of wild-type p53 cells” value is given as “suppress proliferation of wild-type p53 cells more efficiently than the p53 peptides”. Further, in test [3], the “activity in the cellular functional assay” value is listed as “none of them is active”.

The record behind these values is article PMC7025332 (Journal of Medicinal Chemistry, 2020).
